Drawing on PubChem BioAssay (NCI), this text covers TGI for 9 compounds.

SMILES strings stand for the structures.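 Compound exposure: 48 hours, 5 concentrations, 96-well plates. At the TGI there is no net growth.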

Among the test systems are 786-0 renal; COLO 205 colon; DU-145 prostate; HCT-116 colon; HS 578T breast; M14 melanoma; MDA-N; MOLT-4 leukemia; NCI-H460 lung; OVCAR-5 ovarian; SF-268 CNS; SF-539 CNS; SR leukemia; UACC-257 melanoma; UACC-62 melanoma; UO-31 renal; DMS 114 small cell lung.
Holding throughout (experiment): DTP human tumour cell line panel, 48 h

One may read the TGI as the concentration giving total growth inhibition. Higher therefore signals less potent growth arrest. Take `CCSC1=C(C#N)C2(CCCCC2)C2=C(CC(C)(C)CC2=O)N1`: the TGI is over 100 µM in the assay on 786-0 renal; over 100 µM with COLO 205 colon; 60.8 µM in the assay with DU-145 prostate; over 100 µM with HCT-116 colon; over 100 µM with HS 578T breast; over 100 µM with M14 melanoma. In addition, the TGI in the assay with MDA-N is over 100 µM; in the assay with MOLT-4 leukemia it was over 100 µM; in the assay on NCI-H460 lung, 21.2 µM; with OVCAR-5 ovarian, over 100 µM; with SF-268 CNS it was over 100 µM; with SF-539 CNS, over 100 µM. Besides, the TGI was over 100 µM in the assay with SR leukemia, over 100 µM in the assay with UACC-257 melanoma, over 100 µM in the assay on UACC-62 melanoma and 39.8 µM with UO-31 renal.
Consider `Cc1ccc([S+](c2ccccc2)c2cc(C)ccc2C)cc1` (stereo not given), for which the TGI is over 100 µM with 786-0 renal; 61.2 µM with COLO 205 colon; 13.8 µM in the assay on DMS 114 small cell lung; over 100 µM with HCT-116 colon; over 100 µM in the assay on M14 melanoma; over 100 µM in the assay with MOLT-4 leukemia. In addition, the TGI with NCI-H460 lung, in the assay on SF-268 CNS, with SF-539 CNS, with SR leukemia, in the assay on UACC-257 melanoma and in the assay with UACC-62 melanoma was over 100 µM each time. For the same compound, in the assay on UO-31 renal, the TGI was over 100 µM.
For `C=C(C)C1Cc2c(cc(OC)c3c(=O)c4ccccc4n(C)c23)O1` (stereo not given), the TGI with 786-0 renal, in the assay with COLO 205 colon, with DMS 114 small cell lung, in the assay on HCT-116 colon, in the assay with M14 melanoma and in the assay with NCI-H460 lung was over 100 µM throughout. The TGI in the assay on OVCAR-5 ovarian, with SF-268 CNS, in the assay with SF-539 CNS, with SR leukemia, in the assay on UACC-257 melanoma and with UACC-62 melanoma was over 100 µM each time. The compound further yielded a TGI with UO-31 renal of over 100 µM.
As to `Clc1cc2nnn(C3CCCCO3)c2cc1Cl` (stereo not given), the TGI with 786-0 renal, in the assay on COLO 205 colon, in the assay with DU-145 prostate, with HCT-116 colon, with HS 578T breast and with M14 melanoma was over 100 µM each time. For the same compound, the TGI in the assay with MDA-N, with MOLT-4 leukemia, with NCI-H460 lung, with OVCAR-5 ovarian, in the assay on SF-268 CNS and in the assay on SF-539 CNS was over 100 µM throughout. The TGI in the assay on SR leukemia, with UACC-257 melanoma, with UACC-62 melanoma and in the assay with UO-31 renal was over 100 µM in each case.
Regarding `Nc1nc(Cl)cc(NCC2(CO)CC(c3ccccc3)C2)n1` (stereo not given), the TGI with 786-0 renal was over 100 µM; with COLO 205 colon, over 100 µM; with DU-145 prostate, over 100 µM; with HCT-116 colon it was over 100 µM; in the assay with HS 578T breast, 83.8 µM; in the assay with M14 melanoma, over 100 µM. The TGI with MDA-N is over 100 µM; in the assay on MOLT-4 leukemia it was 93.9 µM; in the assay with NCI-H460 lung, over 100 µM; in the assay on OVCAR-5 ovarian, over 100 µM; in the assay on SF-268 CNS, over 100 µM; in the assay with SF-539 CNS, over 100 µM. Moreover, the TGI with SR leukemia, with UACC-257 melanoma, in the assay on UACC-62 melanoma and in the assay with UO-31 renal was over 100 µM each time.
`CCOC(=O)c1ncn2c1[nH]c(=O)c1ccccc12`: the TGI in the assay with 786-0 renal, with COLO 205 colon, with DMS 114 small cell lung, in the assay with HCT-116 colon, with M14 melanoma and in the assay on MOLT-4 leukemia was over 100 µM in each case. The concentration for total growth inhibition (TGI) with NCI-H460 lung, in the assay on OVCAR-5 ovarian, in the assay with SF-268 CNS, in the assay with SF-539 CNS, with SR leukemia and in the assay on UACC-62 melanoma was over 100 µM throughout. The compound also yielded a TGI in the assay with UO-31 renal of over 100 µM.
For `O=C(O)c1cccc(S(=O)(=O)NN2C(=O)CSC2c2ccccc2Cl)c1` (stereo not given), the TGI in the assay on 786-0 renal, with COLO 205 colon, in the assay on DU-145 prostate, with HCT-116 colon, in the assay on HS 578T breast and in the assay with M14 melanoma was over 100 µM throughout. The TGI with MDA-N, in the assay with MOLT-4 leukemia, in the assay on NCI-H460 lung, in the assay with OVCAR-5 ovarian, in the assay on SF-268 CNS and in the assay with SF-539 CNS was over 100 µM in each case. The TGI in the assay on SR leukemia, in the assay on UACC-257 melanoma, with UACC-62 melanoma and with UO-31 renal was over 100 µM in each case.
Consider `CC1C2CC(CC2O)C1(C)C` (stereo not given), for which the TGI in the assay on 786-0 renal, in the assay with COLO 205 colon, in the assay with DU-145 prostate, with HCT-116 colon, in the assay with HS 578T breast and in the assay on M14 melanoma was over 100 µM throughout. Besides, the TGI in the assay on MDA-N, with MOLT-4 leukemia, in the assay on NCI-H460 lung, in the assay with OVCAR-5 ovarian, in the assay with SF-268 CNS and in the assay with SF-539 CNS was over 100 µM throughout. In addition, the concentration for total growth inhibition (TGI) in the assay on SR leukemia, with UACC-257 melanoma, in the assay on UACC-62 melanoma and with UO-31 renal was over 100 µM throughout.
With `CNC(=O)C1CCC(=O)N1CN(C(C)=O)c1ccccc1` (stereo not given), the TGI with 786-0 renal, in the assay on COLO 205 colon, in the assay on DU-145 prostate, with HCT-116 colon, in the assay with HS 578T breast and with M14 melanoma was over 100 µM each time. The TGI with MDA-N, with MOLT-4 leukemia, with NCI-H460 lung, with OVCAR-5 ovarian, in the assay on SF-268 CNS and in the assay with SF-539 CNS was over 100 µM each time. For the same compound, the TGI in the assay on SR leukemia is 84 µM; in the assay on UACC-257 melanoma it was over 100 µM; in the assay with UACC-62 melanoma, over 100 µM; in the assay on UO-31 renal it was over 100 µM.
